Experimental data taken from PMC8026479 (Cancer Chemotherapy and Pharmacology, 2021).

Key:
[1] = system: total bone marrow cycling cells; design: method as in doi:10.1200/jco.2015.33.15_suppl.2529; conditions: dogs; cited from earlier work
[2] = system: transition rate constant from G1 to cycling for HSPCs; experiment: Semi-mechanistic multi-compartment PK/PD model of hematopoiesis; design: species or system mouse, rat, and dog
Text: Owing to the invasive nature of the PD marker collection (i.e. bone marrow aspiration), a semi-mechanistic PK/PD model based on animal PK/PD data and human PK data was developed to guide the selection of an optimal dose level for bone marrow aspiration in humans during dose escalation in the Phase I first-in-human study. The model was constructed using PK data from four species (mouse, rat, dog, and human) and PD data from three species (mouse, rat, and dog; Online Resources 1 and 2).
The PK/multi-compartment PD model was based on a myelosuppression model previously published by Friberg et al., with modifications. […] In the model used in the current study, stem cells and progenitor cells were separated into two compartments, with experimental data measured for each compartment. […] Another important deviation from the Friberg model was the mechanism postulated for the homeostasis of the […] (PMNs). We postulated that the feedback mechanism has a set point target and that deviations from that target would accelerate (in the case of too few PMNs) or decelerate (in the case of too many PMNs) the transition of G1-phase cells to S-phase cells in the stem cell population.
The model was constructed in two stages. First, preclinical PK data (e.g. doses, routes, and schedule of administration, observed concentrations) were compiled and modeled by allometric scaling. A sequential PK/PD modeling approach (population PK parameters and data approach) was then employed in which a semi-mechanistic PD model with various physiological compartments was created, and specific assumptions entered (Online Resource 3). Traditional forward addition/backward elimination was used for PK modeling. […] Many parameters in this complex model could not be estimated and were fixed either to the literature values or values selected on the basis of discussions with domain experts and sensitivity analysis. In preclinical animal models, the PD analysis modeled bone marrow cells positive for 5′-ethynyl-2′-deoxyuridine (EdU) and peripheral neutrophil counts simultaneously. […]

[3] = system: chemotherapy-induced myelosuppression in ES-SCLC patients; experiment: Study G1T28-02 Part 1 DLTs and myelosuppression endpoints (with E/P); assay type: in vivo, human
Text: G1T28-02 (NCT02499770) was a multicentre Phase Ib/IIa study in patients with newly diagnosed ES-SCLC [5]. Eligible patients were aged ≥ 18 years and had histologically or cytologically confirmed ES-SCLC, measurable disease per Response Evaluation Criteria in Solid Tumors (RECIST) version 1.1, an Eastern Cooperative Oncology Group (ECOG) performance status of 0–2, and adequate organ function. […] In the dose-finding Part 1 portion, blood samples for PK analysis were collected at prespecified time points on Cycle 1 Day 1 and Cycle 1 Day 3 (200 mg/m^2 cohort: all patients; 240 mg/m^2 cohort: optional).

[4] = human, in vivo; cited from earlier work
[5] = G1T28-02 Part 1, 200 mg/m2 + E/P (n = 10)
[6] = G1T28-02 Part 1, 240 mg/m2 + E/P (n = 9)
[7] = G1T28-02 Part 1, trilaciclib total (n = 19)

CN1CCN(c2ccc(Nc3ncc4cc5n(c4n3)C3(CCCCC3)CNC5=O)nc2)CC1 [trilaciclib]
maximum decrease from baseline in total bone marrow cycling cells [1]: ~ 50% | EC50, final PD model (concentration of G1T28 with 50% max effect) ([2]; plasma concentration, Emax effect on G1-to-cycling transition of HSPCs, model estimate): 5.9 ng/mL | EC90 (therapeutically active) ([2]; predicted from model EC50): approximately 50 ng/mL | DSN, median (SD) (footnote a) [3, 5]: 6 (5.7) days | Mean ANC Nadir in Cycle 1 [3, 5]: 1.198e+09 L⁻¹ | Occurrence of ESA administrations [3, 5]: 2 (20.0) n (%) | Occurrence of FN [3, 5]: 0 n (%) | Occurrence of G-CSF administration [3, 5]: 5 (50.0) n (%) | Occurrence of Grade 3 or 4 hematologic laboratory abnormalities [3, 5]: 4 (40.0) n (%) | Occurrence of IV antibiotic use [3, 5]: 4 (40.0) n (%) | Occurrence of RBC transfusions on/after Week 5 [3, 5]: 4 (40.0) n (%) | Occurrence of SN [3, 5]: 4 (40) n (%) | Occurrence of infection SAEs [3, 5]: 2 (20.0) n (%) | Occurrence of platelet transfusions [3, 5]: 1 (10.0) n (%) | Occurrence of pulmonary infection SAEs [3, 5]: 1 (10.0) n (%) | Patients with any event for MAHE [3, 5]: 6 (60.0) n (%) | Time to first MAHE, median [3, 5]: 2.6 months | DLTs reported ([3]; G1T28-02 Part 1, 200 mg/m2 + E/P, Grade 4 thrombocytopenia, and Grade 2 neutropenia resulting in Cycle 2 delay): Two DLTs | Mean ANC Nadir in Cycle 1 [3, 6]: 1.653e+09 L⁻¹ | Occurrence of ESA administrations [3, 6]: 0 n (%) | Occurrence of FN [3, 6]: 0 n (%) | Occurrence of G-CSF administration [3, 6]: 3 (33.3) n (%) | Occurrence of Grade 3 or 4 hematologic laboratory abnormalities [3, 6]: 1 (11.1) n (%) | Occurrence of IV antibiotic use [3, 6]: 1 (11.1) n (%) | Occurrence of RBC transfusions on/after Week 5 [3, 6]: 1 (11.1) n (%) | Occurrence of SN [3, 6]: 0 n (%) | Occurrence of infection SAEs [3, 6]: 1 (11.1) n (%) | Occurrence of platelet transfusions [3, 6]: 0 n (%) | Occurrence of pulmonary infection SAEs [3, 6]: 0 n (%) | Patients with any event for MAHE [3, 6]: 6 (66.7) n (%) | Time to first MAHE, median [3, 6]: 3.0 months | DLTs reported ([3]; G1T28-02 Part 1, 240 mg/m2 + E/P, Grade 2 neutropenia resulting in Cycle 2 delay): one | DSN, median (SD) (footnote a) [3, 7]: 6 (5.7) days | Mean ANC Nadir in Cycle 1 [3, 7]: 1.414e+09 L⁻¹ | Occurrence of ESA administrations [3, 7]: 2 (10.5) n (%) | Occurrence of FN [3, 7]: 0 n (%) | Occurrence of G-CSF administration [3, 7]: 8 (42.1) n (%) | Occurrence of Grade 3 or 4 hematologic laboratory abnormalities [3, 7]: 5 (26.3) n (%) | Occurrence of IV antibiotic use [3, 7]: 5 (26.3) n (%) | Occurrence of RBC transfusions on/after Week 5 [3, 7]: 5 (26.3) n (%) | Occurrence of infection SAEs [3, 7]: 3 (15.8) n (%) | Occurrence of platelet transfusions [3, 7]: 1 (5.3) n (%) | Occurrence of pulmonary infection SAEs [3, 7]: 1 (5.3) n (%) | Patients with any event for MAHE [3, 7]: 12 (63.2) n (%) | Time to first MAHE, median [3, 7]: 2.6 months | most commonly reported AEs [4]: headache and nausea | severe AEs [4]: No severe AEs were reported | time to spontaneous resolution of all moderate AEs [4]: ≤ 24 h
